The values that follow come from US20180044343A1, “BICYCLIC IMIDAZOLO DERIVATIVE” (Sumitomo Dainippon Pharma Co., Ltd., priority 2015, published 2018).

Some results are limits rather than exact numbers.

The target in the assay is PDE1B (Homo sapiens, UniProt Q01064). The assay can be described thus: In vitro HTRF PDE1 inhibition assay (PDE1B). Format: biochemical. The settings on record: in vitro PDE1B HTRF Assay; read-out: IC50. A general note: In TR-FRET formats the signal depends on donor and acceptor labels being close together.
Chain of PDE1B (Q01064 whole entry): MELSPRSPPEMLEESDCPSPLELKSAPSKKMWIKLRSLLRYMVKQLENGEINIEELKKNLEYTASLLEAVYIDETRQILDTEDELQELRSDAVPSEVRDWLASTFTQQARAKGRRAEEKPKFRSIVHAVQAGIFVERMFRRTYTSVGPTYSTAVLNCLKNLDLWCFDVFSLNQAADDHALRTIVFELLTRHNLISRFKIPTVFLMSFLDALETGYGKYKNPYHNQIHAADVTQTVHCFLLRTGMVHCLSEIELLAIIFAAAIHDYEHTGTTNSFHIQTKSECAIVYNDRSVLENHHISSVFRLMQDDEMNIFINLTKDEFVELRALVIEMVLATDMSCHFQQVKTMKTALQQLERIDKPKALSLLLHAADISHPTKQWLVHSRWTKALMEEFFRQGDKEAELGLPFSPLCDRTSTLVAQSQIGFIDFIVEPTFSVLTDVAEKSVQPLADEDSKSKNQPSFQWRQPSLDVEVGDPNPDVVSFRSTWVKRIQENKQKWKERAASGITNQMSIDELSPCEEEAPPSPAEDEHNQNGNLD

In the case of `COC(C)c1ncc2c(=O)n(C)c(OCC3CCC(F)(F)CC3)nn12` (centres unmarked) [Example 112], the concentration for half-maximal inhibition (IC50) (as a rule, the concentration needed to halve the response being measured) is less than 1000 nM.

With `COc1nn2c(C(C)OC)ncc2c(=O)n1CC1CCC(F)(F)CC1` (centres unmarked) [Example 114], the IC50 was less than 1000 nM.

For the compound `Cn1c(OCc2ccc(F)cc2)nn2c(C3CCOCC3)nc(Cl)c2c1=O` [Example 117, 5-Chloro-2-[(4-fluorobenzyl)oxy]-3-methyl-7-(tetrahydro-2H-pyran-4-yl)imidazo[5,1-f][1,2,4]triazin-4(3H)-one], the 50% inhibitory concentration (IC50) is less than 1000 nM.

Turning to `CCn1c(OCCCc2ccccn2)nn2c(C3CCOCC3)nc(Cl)c2c1=O` [Example 118], the IC50 is less than 1000 nM.

As for `CCn1c(OCC2CCC(F)(F)CC2)nn2c(C3CCOCC3)nc(Cl)c2c1=O` [Example 119, 5-chloro-2-[(4,4-difluorocyclohexyl)methoxy]-3-ethyl-7-(tetrahydro-2H-pyran-4-yl)-imidazo[5,1-f][1,2,4]triazin-4(3H)-one], the 50% inhibitory concentration (IC50) is less than 1000 nM.

As for `CCn1c(OCC2CCC(F)(F)CC2)nn2c(C3CCOCC3)nc(C)c2c1=O` [Example 121], the IC50 is less than 1000 nM.

In the case of `COc1nn2c(C3CCOCC3)nc(C)c2c(=O)n1CC1CCC(F)(F)CC1` [Example 122], the half-inhibitory concentration (IC50) is less than 1000 nM.

As for `CCn1c(OCC2CCC(F)(F)CC2)nn2c(C3CCOCC3)ncc2c1=S` [Example 123, 2-[(4,4-Difluorocyclohexyl)methoxy]-3-ethyl-7-(tetrahydro-2H-pyran-4-yl)imidazo[5,1-f][1,2,4]triazin-4(3H)-thione], the IC50 was less than 1000 nM.

As for `O=c1[nH]c(N2CCC[C@@H]2c2ccccc2)nn2c(C3CCOCC3)ncc12` [Example 124, 2-[(2R)-2-phenylpyrrolidin-1-yl]-7-(tetrahydro-2H-pyran-4-yl)imidazo[5,1-f][1,2,4]triazin-4(3H)-one], the IC50 was less than 1000 nM.

As for `CC(C)c1ncc2c(=O)[nH]c(N3CCC[C@@H]3c3ccc(Cl)cc3)nn12` [Example 125, 2-[(2R)-2-(4-chlorophenyl)pyrrolidin-1-yl]-7-(propan-2-yl)imidazo[5,1-f][1,2,4]triazin-4(3H)-one], the IC50 is less than 1000 nM.

Take `O=c1[nH]c(N2CCC[C@H]2c2ccccc2)nn2c(C3CCOCC3)ncc12` [Example 126]: the 50% inhibitory concentration (IC50) is less than 1000 nM.

Consider `O=c1[nH]c(N2CCCC2c2ccccc2Cl)nn2c(C3CCOCC3)ncc12` (centres unmarked) [Example 127], for which the concentration for half-maximal inhibition (IC50) is less than 1000 nM.

Consider `O=c1[nH]c(N2CCCC2c2cccc(Cl)c2)nn2c(C3CCOCC3)ncc12` (centres unmarked) [Example 128], for which the 50% inhibitory concentration (IC50) was less than 1000 nM.

For `O=c1[nH]c(N2CCCC2c2ccc(Cl)cc2)nn2c(C3CCOCC3)ncc12` (centres unmarked) [Example 129], the half-inhibitory concentration (IC50) is less than 1000 nM.

For the compound `CC(C)c1ncc2c(=O)[nH]c(N3CCC[C@@H]3c3ccccc3)nn12` [Example 130], the IC50 is less than 1000 nM.

Regarding `CC(C)c1ncc2c(=O)[nH]c(N3CCC[C@H]3c3ccccc3)nn12` [Example 131], the half-inhibitory concentration (IC50) was 1000 to 10000 nM.

Take `CC(C)c1ncc2c(=O)[nH]c(N3CCCC3c3ccccc3Cl)nn12` (centres unmarked) [Example 132]: the IC50 is less than 1000 nM.

On to `CC(C)c1ncc2c(=O)[nH]c(N3CCCC3c3cccc(Cl)c3)nn12` (centres unmarked) [Example 133], for which the IC50 was less than 1000 nM.

`CC(C)c1ncc2c(=O)[nH]c(N3CCCC3c3ccc(Cl)cc3)nn12` (centres unmarked) [Example 134]: the 50% inhibitory concentration (IC50) is less than 1000 nM.

For the compound `COc1ccc(CNc2nn3c(C(C)C)ncc3c(=O)n2C)nc1` [Example 135, 2-{[(5-Methoxypyridin-2-yl)methyl]amino}-3-methyl-7-(propan-2-yl)imidazo[5,1-f][1,2,4]triazin-4(3H)-one], the IC50 was less than 1000 nM.

For the compound `Cc1ccc(CNc2nn3c(C4CCOCC4)ncc3c(=O)n2C)c(F)c1` [Example 136, 2-[(2-Fluoro-4-methylbenzyl)amino]-3-methyl-7-(tetrahydro-2H-pyran-4-yl)imidazo[5,1-f][1,2,4]triazin-4(3H)-one], the IC50 is less than 1000 nM.

In the case of `Cc1cccc(CNc2nn3c(C(C)C)ncc3c(=O)n2C)n1` [Example 137, 3-Methyl-2-{[(6-methylpyridin-2-yl)methyl]amino}-7-(propan-2-yl)imidazo[5,1-f][1,2,4]triazin-4(3H)-one], the IC50 is less than 1000 nM.

As for `CC(C)c1ncc2c(=O)n(C)c(NC3CCCc4ccccc43)nn12` (centres unmarked) [Example 138, 3-Methyl-7-(propan-2-yl)-2-(1,2,3,4-tetrahydronaphthalen-1-ylamino)imidazo[5,1-f][1,2,4]triazin-4(3H)-one], the concentration for half-maximal inhibition (IC50) was less than 1000 nM.

In the case of `CC(C)c1ncc2c(=O)n(C)c(NCc3ccccc3)nn12` [Example 139], the IC50 was less than 1000 nM.

Turning to `COc1ccc(CNc2nn3c(C(C)C)ncc3c(=O)n2C)cc1` [Example 140], the IC50 is less than 1000 nM.

For `CC(C)c1ncc2c(=O)n(C)c(NCc3ccc(Cl)cc3)nn12` [Example 141], the IC50 was less than 1000 nM.

Take `CC(C)c1ncc2c(=O)n(C)c(NCc3ccc(C#N)cc3)nn12` [Example 142]: the half-maximal inhibitory concentration (IC50) is less than 1000 nM.

As to `CC(C)c1ncc2c(=O)n(C)c(NC3CCc4ccccc43)nn12` (centres unmarked) [Example 143], the IC50 was less than 1000 nM.

`CC(C)c1ncc2c(=O)n(C)c(N[C@@H]3CCCc4ccccc43)nn12` [Example 144]: the half-maximal inhibitory concentration (IC50) was less than 1000 nM.

Turning to `CC(C)c1ncc2c(=O)n(C)c(N[C@H]3CCCc4ccccc43)nn12` [Example 145], the IC50 was less than 1000 nM.

As for `CC(C)c1ncc2c(=O)n(C)c(NCc3ccc(Cl)cc3F)nn12` [Example 146], the IC50 is less than 1000 nM.

Consider `CC(C)c1ncc2c(=O)n(C)c(NC3CCCc4cc(Cl)ccc43)nn12` (centres unmarked) [Example 147], for which the IC50 was less than 1000 nM.

On to `CC(C)c1ncc2c(=O)n(C)c(NC3CCCc4cc(C#N)ccc43)nn12` (centres unmarked) [Example 148], for which the half-inhibitory concentration (IC50) is less than 1000 nM.

On to `CC(C)c1ncc2c(=O)n(C)c(NCc3ccccn3)nn12` [Example 150], for which the IC50 was less than 1000 nM.

Take `CC(C)c1ncc2c(=O)n(C)c(NCCc3ccccn3)nn12` [Example 151]: the IC50 was less than 1000 nM.

As for `CC(C)c1ncc2c(=O)n(C)c(NCc3cccnc3)nn12` [Example 152], the half-maximal inhibitory concentration (IC50) is less than 1000 nM.

On to `Cc1ccc(CNc2nn3c(C(C)C)ncc3c(=O)n2C)nc1` [Example 153], for which the concentration for half-maximal inhibition (IC50) was less than 1000 nM.

For `CC(C)c1ncc2c(=O)n(C)c(NCc3ccc(F)cn3)nn12` [Example 154], the concentration for half-maximal inhibition (IC50) lay in the range of 1000 to 10000 nM.

`Cc1ccc(CNc2nn3c(C(C)C)ncc3c(=O)n2C)cn1` [Example 155]: the IC50 is less than 1000 nM.

Turning to `Cc1ccnc(CNc2nn3c(C(C)C)ncc3c(=O)n2C)c1` [Example 156], the IC50 is less than 1000 nM.

For `Cc1cccnc1CNc1nn2c(C(C)C)ncc2c(=O)n1C` [Example 157], the half-inhibitory concentration (IC50) is less than 1000 nM.

On to `CC(C)c1ncc2c(=O)n(C)c(NCc3ccc(C#N)cn3)nn12` [Example 158], for which the IC50 is less than 1000 nM.

With `CCc1ccc(CNc2nn3c(C(C)C)ncc3c(=O)n2C)nc1` [Example 159], the concentration for half-maximal inhibition (IC50) is less than 1000 nM.

In the case of `CC(C)c1ncc2c(=O)n(C)c(NCc3ncccc3F)nn12` [Example 160], the half-maximal inhibitory concentration (IC50) was less than 1000 nM.

`CC(C)c1ncc2c(=O)n(C)c(NC3(c4ccccn4)CC3)nn12` [Example 161]: the half-inhibitory concentration (IC50) was less than 1000 nM.

For the compound `CC(C)c1ncc2c(=O)n(C)c(NC(C)(C)c3ccccn3)nn12` [Example 162], the IC50 was in the range of 1000 to 10000 nM.

With `CC(C)c1ncc2c(=O)n(C)c(N(C)Cc3ccccn3)nn12` [Example 163], the half-maximal inhibitory concentration (IC50) lay within 1000 to 10000 nM.

For `CC(C)c1ncc2c(=O)n(C)c(N3CCC[C@@H]3c3ccc(Cl)cc3)nn12` [Example 164], the IC50 was less than 1000 nM.

For the compound `Cc1ccc([C@H]2CCCN2c2nn3c(C(C)C)ncc3c(=O)n2C)cc1` [Example 165], the 50% inhibitory concentration (IC50) is less than 1000 nM.

In the case of `CC(C)c1ccc([C@H]2CCCN2c2nn3c(C(C)C)ncc3c(=O)n2C)cc1` [Example 166], the IC50 is less than 1000 nM.

As for `CC(C)c1ncc2c(=O)n(C)c(N3CCC[C@@H]3c3ccc(C#N)cc3)nn12` [Example 167], the IC50 is 1000 to 10000 nM.

Regarding `CCc1ccc([C@H]2CCCN2c2nn3c(C(C)C)ncc3c(=O)n2C)cc1` [Example 168], the IC50 is less than 1000 nM.

`CCn1c(NCc2ccccn2)nn2c(C(C)C)ncc2c1=O` [Example 169]: the IC50 is less than 1000 nM.

In the case of `CCn1c(NCc2ccc(C)cn2)nn2c(C(C)C)ncc2c1=O` [Example 170], the IC50 is less than 1000 nM.

As to `CCn1c(NCc2ccc(F)cn2)nn2c(C(C)C)ncc2c1=O` [Example 171], the IC50 was less than 1000 nM.

As for `CCn1c(NCc2ccc(OC)cn2)nn2c(C(C)C)ncc2c1=O` [Example 172], the 50% inhibitory concentration (IC50) was less than 1000 nM.

`CCn1c(NCc2ncccc2C)nn2c(C(C)C)ncc2c1=O` [Example 173]: the IC50 was in the range of 1000 to 10000 nM.

`CCn1c(NCc2ncccc2F)nn2c(C(C)C)ncc2c1=O` [Example 174]: the IC50 is less than 1000 nM.

As to `CCn1c(NCc2ccc(C#N)cn2)nn2c(C(C)C)ncc2c1=O` [Example 175], the IC50 was less than 1000 nM.

For the compound `CCn1c(NCc2ccc(C)nc2)nn2c(C(C)C)ncc2c1=O` [Example 176], the IC50 is less than 1000 nM.

For the compound `CCn1c(NCCc2ccccn2)nn2c(C(C)C)ncc2c1=O` [Example 177], the IC50 was less than 1000 nM.

For `CCn1c(N2CCC[C@@H]2c2ccc(Cl)cc2)nn2c(C(C)C)ncc2c1=O` [Example 178], the IC50 is less than 1000 nM.

In the case of `CCCn1c(N2CCC[C@@H]2c2ccc(Cl)cc2)nn2c(C(C)C)ncc2c1=O` [Example 179], the IC50 is less than 1000 nM.

As to `Cn1c(NCc2ccc(Cl)cc2)nn2c(C3CCOCC3)ncc2c1=O` [Example 180], the IC50 was less than 1000 nM.

Turning to `Cn1c(NCc2ccccn2)nn2c(C3CCOCC3)ncc2c1=O` [Example 181], the concentration for half-maximal inhibition (IC50) was less than 1000 nM.

As to `Cn1c(NCCc2ccccn2)nn2c(C3CCOCC3)ncc2c1=O` [Example 182], the concentration for half-maximal inhibition (IC50) was less than 1000 nM.

Regarding `Cn1c(N2CCCC2)nn2c(C3CCOCC3)ncc2c1=O` [Example 183], the IC50 was less than 1000 nM.

Regarding `Cn1c(N2CCCCC2)nn2c(C3CCOCC3)ncc2c1=O` [Example 184], the IC50 is less than 1000 nM.

Turning to `Cn1c(N2CCOCC2)nn2c(C3CCOCC3)ncc2c1=O` [Example 185], the IC50 was less than 1000 nM.

As for `COCCN1CCN(c2nn3c(C4CCOCC4)ncc3c(=O)n2C)CC1` [Example 186], the IC50 is less than 1000 nM.

For the compound `CO[C@H]1CCN(c2nn3c(C4CCOCC4)ncc3c(=O)n2C)C1` [Example 187], the IC50 is less than 1000 nM.
